Measurements published in US20090178145A1, “Methods and targets for identifying compounds for regulating angiogenesis” (The Procter & Gamble Company, priority 2005, published 2009).

Experiments:
ETL = assay: Zebrafish morpholino knockdown of ETL: blood circulation and intersegmental vessel morphology; format: in vivo
Source text: (§1) To assess gene function in zebrafish (Danio rario) angiogenesis, MOs directed against ETL, GPR (or GPR176) and their respective mismatch controls are microinjected into zebrafish at the 1-2 cell stage. Blood circulation through the intersegmental vessels (ISVs) is observed in live zebrafish at 48 hpf and morphology of ISVs in the tail at 48 hpf using Phy-V antibody staining is also examined as described (Seng W. L. et al., Angiogenesis. 2004; 7(3):243-53.). The sequence for the ETL morpholino is: […]. The sequence for the mismatch […] morpholino (small case letters indicate mismatches) is: GCAcGAcTTTgATTGGAcAACTcTG. The sequence for the GPR morpholino is: […]. The sequence for the mismatch […] morpholino (small case letters indicate mismatches) is: AGgTCTgCGCcTTATCCcCCTCgAT.
While transcriptional gene changes provide the basis for investigating ETL and GPR as regulators of vascular development, experiments are carried out to obtain functional evidence that ETL and GPR are involved in blood vessel growth and development. To accomplish this, a zebrafish model may be used with ETL or GPR morpholino oligos to reduce gene expression during vasculogenesis. […] This effect is not seen in control MO injections.

GPR176 = assay: Zebrafish morpholino knockdown of GPR (GPR176): blood circulation and intersegmental vessel morphology; format: in vivo; settings: 48 hpf
Source text: as §1
This effect is not seen in control MO injections.

Row | Substance | zebrafish affected (same ISV phenotype as the 0.5 pmol dose) (ETL; 0.25 pmol ETL MO, 48 hpf) [%] | zebrafish with abnormal connections and incomplete vessel formation of ISVs by immunostaining (ETL; 0.5 pmol ETL MO injected at 1-2 cell stage, 48 hpf) [%] | body morphology in live zebrafish (ETL; 0.5 pmol ETL MO, 48 hpf) | blood circulation through the intersegmental vessels in live zebrafish (ETL; 0.5 pmol ETL MO, 48 hpf, versus mismatch control) | phenotype of knockdown in images (FIG. 7) (ETL; 48 hours post fertilization, versus mismatch control) | zebrafish affected (similar ISV phenotype as the 0.5 pmol dose) (GPR176; 0.25 pmol GPR MO) [%] | body morphology in live zebrafish (GPR176; 0.5 pmol GPR MO) | zebrafish with abnormal connections and incomplete vessel formation of ISVs by immunostaining (GPR176; 0.5 pmol GPR MO, experiment 1) [%] | zebrafish with abnormal connections and incomplete vessel formation of ISVs by immunostaining (GPR176; 0.5 pmol GPR MO, experiment 2) [%] | blood circulation through the intersegmental vessels in live zebrafish (GPR176; 0.5 pmol GPR MO, versus mismatch control)
1 | ETL MO: morpholino oligo directed against zebrafish ETL, sequence GCAGGAGTTTCATTGGAGAACTGTG (SEQ ID NO 17) (all phosphorodiamidate morpholino (PMO)) | 70 | 100 | slightly curved body morphology | visible circulatory defects | retarded eye formation, edema in the brain and disrupted intersegmental vessel development and disrupted blood circulation |  |  |  |  | 
2 | GPR MO: morpholino oligo directed against zebrafish GPR176, sequence AGCTCTCCGCGTTATCCGCCTCCAT (SEQ ID NO 19) (all phosphorodiamidate morpholino (PMO)) |  |  |  |  |  | 37 | slightly curved body morphology | 76 | 94 | visible circulatory defects
